In patent publication US20240262804A1, “NITROGEN-CONTAINING HETEROCYCLIC KETONES, PREPARATION METHODS AND MEDICINAL USES THEREOF” (Hansoh Bio LLC, priority 2021, published 2024):

Molecular target: bovine cardiac myosin (Bos taurus (Bovine), UniProt Q9BE39)
Experiment: Myosin inhibitory potency: PK/LDH-coupled ATPase assay on bovine skinned cardiac myofibrils
Type: biochemical
Settings: pCa=6.25, 50 μM ATP, 25° C., read-out: myosin inhibition activity IC50
Experimental: The average rates of ATPase inhibition, and the IC50 values are determined by Victor Nivo multimode plate reader (PerkinElmer, USA).
As to the assays background, a biochemical assay couples the ATPase activity of bovine cardiac myosin to an enzymatic coupling system consisting of pyruvate kinase and lactate dehydrogenase (PK/LDH) and monitoring the absorbance decrease of NADH (at 340 nm) as a function of time to measure the inhibitory ability of small molecule agents. In the assay, PK converts ADP (Adenosine diphosphate) to ATP (adenosine triphosphate) by converting PEP (phosphoenolpyruvate) to pyruvate. Pyruvate is then converted to lactate by LDH by converting NADH (nicotinamide adenine dinucleotide) to NAD (oxidized nicotinamide adenine dinucleotide).
In our experiments, bovine skinned cardiac myofibrils were isolated from the frozen bovine left ventricle as myosin's source in the ATPase assay. The calcium concentration that achieves a 50% (pCa50 or pCa=6.25) activation of the myofibril system was chosen as the final condition for assessing the activation activity according to the literature (DOI: 10.1074/jbc.M117.776815). Myofibrils ATPase activity was measured in a buffered solution containing 12 mM PIPES (piperazine-N, N′-bis(2-ethane sulfonic acid) and 2 mM magnesium chloride at pH 6.8 (PM12 buffer). Final assay conditions were 1 mg/mL of bovine cardiac myofibrils, 1:20 of stock PK/LDH (Sigma-Aldrich, Cat No. P0294-5X5ML), 50 μM ATP, 1 mM DTT (dithiothreitol), 0.75 mM NADH, 1.5 mM PEP at pCa50 (pCa=6.25). Compounds were dissolved in DMSO (dimethyl sulfoxide). Serial dilution of compounds was created such that the final desired concentration of compound would be achieved in a volume of 150 μL with a fixed DMSO concentration of 2% (v/v). 75 μL of a solution containing bovine cardiac myofibrils, PK/LDH, and calcium were added to a 96 well plate for a 7 point dose-response. In some circumstances, 10 point-response was used to repeat the ATPase assays on compounds of interest. Compounds were added to the myofibrils solution and incubated for 5 minutes. The enzymatic reaction was started with the addition of 75 μL of a solution containing ATP, PEP, NADH, compounds, and calcium. The ATPase activity was measured by reading absorbance at 340 nm in a PerkinElmer Victor Nivo plate reader at 25° C. in kinetic mode for 15 minutes using clear bottom plates. The slopes of the absorbance changes as a function of time for the first 10 minutes were normalized to slopes on the control wells containing all reagents, including DMSO, but without compounds. This normalized rate was then plotted as a function of small molecule concentration in GraphPad prism 9. The data were fitted to a four-parameter fit, and IC50 was calculated using Graphpad Prism 9.

Chain of bovine cardiac myosin (Q9BE39 whole entry): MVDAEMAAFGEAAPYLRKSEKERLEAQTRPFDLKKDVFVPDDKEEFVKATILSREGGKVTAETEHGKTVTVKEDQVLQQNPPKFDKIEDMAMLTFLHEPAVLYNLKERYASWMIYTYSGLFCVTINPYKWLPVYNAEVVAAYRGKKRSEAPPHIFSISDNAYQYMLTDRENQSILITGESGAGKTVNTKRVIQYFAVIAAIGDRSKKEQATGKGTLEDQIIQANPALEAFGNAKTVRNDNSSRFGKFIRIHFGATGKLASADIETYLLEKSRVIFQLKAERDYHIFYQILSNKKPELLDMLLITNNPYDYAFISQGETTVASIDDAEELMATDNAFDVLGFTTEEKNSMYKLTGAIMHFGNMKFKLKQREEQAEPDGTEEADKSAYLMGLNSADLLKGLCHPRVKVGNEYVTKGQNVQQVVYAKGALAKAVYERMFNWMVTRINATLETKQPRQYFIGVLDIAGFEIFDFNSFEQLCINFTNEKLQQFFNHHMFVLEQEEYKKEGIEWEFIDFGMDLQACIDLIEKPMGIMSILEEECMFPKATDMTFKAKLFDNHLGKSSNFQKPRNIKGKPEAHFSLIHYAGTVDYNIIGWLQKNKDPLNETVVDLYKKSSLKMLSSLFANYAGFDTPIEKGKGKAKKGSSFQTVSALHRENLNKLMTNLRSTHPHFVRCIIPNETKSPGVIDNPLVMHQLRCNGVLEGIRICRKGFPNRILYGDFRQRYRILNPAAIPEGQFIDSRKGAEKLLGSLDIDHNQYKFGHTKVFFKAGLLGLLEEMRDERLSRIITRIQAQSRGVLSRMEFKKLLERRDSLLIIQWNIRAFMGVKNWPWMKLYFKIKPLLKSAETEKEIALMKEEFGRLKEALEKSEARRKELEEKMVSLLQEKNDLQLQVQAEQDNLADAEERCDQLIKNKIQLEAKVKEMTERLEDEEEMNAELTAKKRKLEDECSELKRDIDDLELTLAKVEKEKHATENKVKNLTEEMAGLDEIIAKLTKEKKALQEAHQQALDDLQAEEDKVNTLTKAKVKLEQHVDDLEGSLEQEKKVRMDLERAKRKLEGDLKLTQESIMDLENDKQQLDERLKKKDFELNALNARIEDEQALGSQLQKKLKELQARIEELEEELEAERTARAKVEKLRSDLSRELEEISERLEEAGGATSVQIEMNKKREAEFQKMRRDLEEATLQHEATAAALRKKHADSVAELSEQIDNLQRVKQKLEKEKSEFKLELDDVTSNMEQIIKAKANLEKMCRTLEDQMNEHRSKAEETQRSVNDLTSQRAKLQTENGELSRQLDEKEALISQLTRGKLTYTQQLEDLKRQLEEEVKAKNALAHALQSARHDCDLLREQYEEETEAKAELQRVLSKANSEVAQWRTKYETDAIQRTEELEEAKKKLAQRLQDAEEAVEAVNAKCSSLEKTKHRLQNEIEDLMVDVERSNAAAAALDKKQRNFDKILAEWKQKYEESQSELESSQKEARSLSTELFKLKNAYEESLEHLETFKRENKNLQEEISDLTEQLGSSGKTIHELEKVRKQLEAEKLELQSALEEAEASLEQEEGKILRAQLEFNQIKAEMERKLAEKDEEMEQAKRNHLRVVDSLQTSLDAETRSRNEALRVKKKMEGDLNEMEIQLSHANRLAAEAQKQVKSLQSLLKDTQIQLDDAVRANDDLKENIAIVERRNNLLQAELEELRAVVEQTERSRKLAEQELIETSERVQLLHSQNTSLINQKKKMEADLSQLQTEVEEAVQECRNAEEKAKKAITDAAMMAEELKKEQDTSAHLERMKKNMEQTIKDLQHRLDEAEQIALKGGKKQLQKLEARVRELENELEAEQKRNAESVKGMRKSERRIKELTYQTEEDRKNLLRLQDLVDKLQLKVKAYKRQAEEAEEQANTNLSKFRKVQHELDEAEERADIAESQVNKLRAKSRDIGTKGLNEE
Chain of bovine cardiac myosin (P85100 whole entry partner): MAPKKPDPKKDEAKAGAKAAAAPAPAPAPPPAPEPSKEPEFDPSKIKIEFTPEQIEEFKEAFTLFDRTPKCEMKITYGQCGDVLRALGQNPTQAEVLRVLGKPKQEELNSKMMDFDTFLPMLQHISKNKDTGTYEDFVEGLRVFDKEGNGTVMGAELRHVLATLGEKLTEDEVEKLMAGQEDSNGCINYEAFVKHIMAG
Chain of bovine cardiac myosin (Q3SZE5 whole entry partner): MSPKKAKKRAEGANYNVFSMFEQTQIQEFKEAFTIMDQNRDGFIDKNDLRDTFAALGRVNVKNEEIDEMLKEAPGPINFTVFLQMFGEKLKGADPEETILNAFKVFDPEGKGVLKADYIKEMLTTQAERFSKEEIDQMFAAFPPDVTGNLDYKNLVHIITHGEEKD

| Compound | IC50 [nM] |
| --- | --- |
| C[C@H](Nc1nc(=O)n(C2CCN(C)C(=O)C2)c(=O)[nH]1)C1CCCCC1 (stereo partly shown) [Example 23] | 8050 |
| CC(Nc1nc(=O)n(C2CCNCC2)c(=O)[nH]1)c1ccc(C(F)(F)F)cc1 (stereo not shown) [Example 193] | 5150 |
| C[C@H](Nc1nc(=O)n(C2(C)CCC2)c(=O)[nH]1)C1CCCCC1 [Example 89] | 8640 |
| C[C@H](Nc1nc(=O)n(C2CCOCC2)c(=O)[nH]1)c1cccc(C2CCCCC2)c1 [Example 215] | 880 |
| C[C@H](Nc1nc(=O)n(C2CCOCC2)c(=O)[nH]1)c1cccc(C2CCOCC2)c1 [Example 207] | 1320 |
| CC(C)n1c(=O)nc(N[C@@H](C)c2cccc([C@H](C)O)c2)[nH]c1=O [Example 342] | 2070 |
| C[C@H](Nc1nc(=O)n(C2CCN(C)CC2)c(=O)[nH]1)C1CCCCC1 [Example 59] | 2590 |
| CC(Nc1nc(=O)n(C(C)C)c(=O)[nH]1)c1ccccc1O (stereo not shown) [Example 51] | 11100 |
| CC(C)n1c(=O)nc(N[C@@H](C)c2cccc(C(F)(F)F)c2)[nH]c1=O [Example 322] | 1210 |
| CC(Nc1nc(=O)n(C2CCNCC2)c(=O)[nH]1)c1cccc(F)c1 (stereo not shown) [Example 191] | 7630 |
| COC[C@@H](Nc1nc(=O)n(C2CCOCC2)c(=O)[nH]1)c1cc(C)ccc1F [Example 278] | 630 |
| C[C@H](Nc1nc(=O)n(C2CCOCC2)c(=O)[nH]1)c1cccc(Cl)c1F [Example 11] | 1370 |
| Cc1cccc(C(C)Nc2nc(=O)n(C3CCNCC3)c(=O)[nH]2)c1 (stereo not shown) [Example 187] | 3340 |
| C[C@H](Nc1nc(=O)n([C@H]2CCOC[C@H]2F)c(=O)[nH]1)c1cccc(C(F)(F)F)c1 [Example 310] | 1490 |
| Cc1cccc([C@H](C)Nc2nc(=O)n(C3CCCOC3)c(=O)[nH]2)c1 (stereo partly shown) [Example 35] | 2590 |
| O=c1nc(NC(C2CCCCC2)C(F)(F)F)[nH]c(=O)n1C1CCOCC1 (stereo not shown) [Example 75] | 6120 |
| Cc1ccc(F)c([C@H](C)Nc2nc(=O)n([C@@H]3CCOC[C@@H]3F)c(=O)[nH]2)c1 [Example 313] | 1370 |
| CC(C)(C#N)c1cccc([C@@H](Nc2nc(=O)n(C3CCOCC3)c(=O)[nH]2)C(F)F)c1 [Example 268] | 1070 |
| Cc1cccc(C(C)Nc2nc(=O)n(C3CCN(C(=O)OC(C)(C)C)CC3)c(=O)[nH]2)c1 (stereo not shown) [Example 146] | 5510 |
| CC(C)n1c(=O)nc(N[C@H](c2cccc(C(C)(C)C#N)c2)C(F)F)[nH]c1=O [Example 264] | 1370 |
| C[C@H](Nc1nc(=O)n(C2CCC(F)(F)CC2)c(=O)[nH]1)C1CCCCC1 [Example 55] | 4630 |
| C[C@H](Nc1nc(=O)n(C2CCOCC2)c(=O)[nH]1)c1cccc(C(O)C(F)(F)F)c1 (stereo partly shown) [Example 348] | 2450 |
| Cc1cccc([C@H](C)Nc2nc(=O)n([C@H]3CC[C@@H](NC(=O)OC(C)(C)C)CC3)c(=O)[nH]2)c1 [Example 96] | 4580 |

| Compound | IC50 [nM] |
| --- | --- |
| C[C@H](Nc1nc(=O)n(C2CCOCC2)c(=O)[nH]1)c1ccc(S(C)(=O)=O)cc1 [Example 249] | 780 |
| C[C@H](Nc1nc(=O)n(C2CCOCC2)c(=O)[nH]1)c1cccc(F)c1 [Example 124] | 1740 |
| Cc1cccc(C(C)Nc2nc(=O)n(C3CCOCC3)c(=O)[nH]2)c1 (stereo not shown) [Example 133] | 240 |
| CO[C@H]1COCC[C@@H]1n1c(=O)nc(N[C@@H](C)c2cc(C)ccc2F)[nH]c1=O [Example 282] | 900 |
| C[C@H](Nc1nc(=O)n(C2CCOCC2)c(=O)[nH]1)c1cccc(-c2cn[nH]c2)c1 [Example 228] | 4140 |
| O=c1nc(NC2CCc3ccccc32)[nH]c(=O)n1C1CCOCC1 (stereo not shown) [Example 149] | 5500 |
| C[C@H](Nc1nc(=O)n(C2CCOCC2)c(=O)[nH]1)c1cccc(N2CCCCC2)c1 [Example 216] | 1300 |
| C[C@H](Nc1nc(=O)n(C2CCOCC2)c(=O)[nH]1)c1cccc(C2CCN(CC(F)(F)F)CC2)c1 [Example 290] | 2210 |
| CC(=O)N1CC(c2cccc([C@@H](Nc3nc(=O)n(C4CCOCC4)c(=O)[nH]3)C(F)F)c2)C1 [Example 260] | 200 |
| CC(Nc1nc(=O)n(C2CCOCC2)c(=O)[nH]1)C1CCCCCC1 (stereo not shown) [Example 109] | 4580 |
| Cc1ccc(C(C)Nc2nc(=O)n(C3CCNCC3)c(=O)[nH]2)cc1 (stereo not shown) [Example 194] | 4470 |
| C[C@H](Nc1nc(=O)n(C2CCOCC2)c(=O)[nH]1)c1cccc(Cl)c1 [Example 154] | 370 |
| C[C@H](Nc1nc(=O)n(C2CCOCC2)c(=O)[nH]1)c1cccc(-n2cncn2)c1 [Example 201] | 4850 |
| COc1ccc([C@H](C)Nc2nc(=O)n(C3CCOCC3)c(=O)[nH]2)cc1 [Example 48] | 1130 |
| CC(Nc1nc(=O)n(C2CCOCC2)c(=O)[nH]1)c1ccc(O)cc1 (stereo not shown) [Example 103] | 14100 |
| Cc1cccc([C@H](C)Nc2nc(=O)n(C3CCN(CC(F)(F)F)CC3)c(=O)[nH]2)c1 [Example 39] | 6700 |
| Cc1ccc(F)c([C@H](C)Nc2nc(=O)n([C@H](C3CC3)C(F)(F)F)c(=O)[nH]2)c1 [Example 303] | 560 |
| C[C@H](Nc1nc(=O)n(C2CCN(CCF)CC2)c(=O)[nH]1)C1CCCCC1 [Example 300] | 2290 |
| CC(Nc1nc(=O)n(C2CCOCC2)c(=O)[nH]1)c1cccc(C2CC2)c1 (stereo not shown) [Example 136] | 4980 |
| CC(Nc1nc(=O)n(C2CCNCC2)c(=O)[nH]1)c1ccccc1F (stereo not shown) [Example 190] | 4650 |
| C[C@H](Nc1nc(=O)n(C2CCOCC2)c(=O)[nH]1)C1CCCCC1 [Example 2] | 2450 |
| O=c1nc(NC(c2ccccc2)C(F)F)[nH]c(=O)n1C1CCOCC1 (stereo not shown) [Example 143] | 7640 |
| CC(Nc1nc(=O)n(C2CCOCC2)c(=O)[nH]1)c1cccc(CO)c1 (stereo not shown) [Example 139] | 6650 |

| Compound | IC50 [nM] |
| --- | --- |
| C[C@H](Nc1nc(=O)n(C2CCOCC2)c(=O)[nH]1)c1ccccc1 [Example 46] | 3900 |
| COc1cccc([C@H](C)Nc2nc(=O)n(C3CCOCC3)c(=O)[nH]2)c1 [Example 326] | 1350 |
| C[C@H](Nc1nc(=O)n(C2CCOCC2)c(=O)[nH]1)c1ccc(F)c(F)c1 [Example 164] | 1360 |
| Cc1cc(C)cc([C@H](C)Nc2nc(=O)n(C3CCOCC3)c(=O)[nH]2)c1 [Example 56] | 1490 |
| CC(=O)N1CCN(c2cccc([C@H](C)Nc3nc(=O)n(C4CCOCC4)c(=O)[nH]3)c2)CC1 [Example 213] | 7790 |
| CC(Nc1nc(=O)n(C2CCOCC2)c(=O)[nH]1)c1cccc(-n2cccn2)c1 (stereo not shown) [Example 217] | 3660 |
| C[C@H](Nc1nc(=O)n(C2CCOCC2)c(=O)[nH]1)c1ccc(F)c(Br)c1 [Example 158] | 520 |
| CC(C)n1c(=O)nc(N[C@H](c2cccc(C(O)C3CC3)c2)C(F)F)[nH]c1=O (stereo partly shown) [Example 265] | 1100 |
| CC(C)n1c(=O)nc(N[C@H](c2cccc(C3CN(CC(F)(F)F)C3)c2)C(F)F)[nH]c1=O [Example 261] | 760 |
| CC(C)c1cccc([C@H](C)Nc2nc(=O)n(C3CCOCC3)c(=O)[nH]2)c1 [Example 308] | 1000 |
| CC(C)[C@@H](O)c1cccc([C@H](C)Nc2nc(=O)n(C3CCOCC3)c(=O)[nH]2)c1 [Example 287] | 540 |
| CC(C)C(=O)N1CCC(n2c(=O)nc(N[C@@H](C)C3CCCCC3)[nH]c2=O)CC1 [Example 234] | 7080 |
| CC(C)n1c(=O)nc(NCCC2CCCCC2)[nH]c1=O [Example 65] | 4230 |
| CC(C)n1c(=O)nc(N[C@@H](C)c2cccc(F)c2)[nH]c1=O [Example 181] | 2380 |
| CC(C)N1CCC(n2c(=O)nc(N[C@@H](C)C3CCCCC3)[nH]c2=O)CC1 [Example 31] | 5910 |
| CC(C)n1c(=O)nc(N[C@@H](C)c2ccccc2)[nH]c1=O [Example 3] | 7050 |
| CNC(=O)N1CCC(n2c(=O)nc(N[C@@H](C)c3cccc(C)c3)[nH]c2=O)CC1 [Example 245] | 5500 |
| C[C@H](Nc1nc(=O)n(C2CCCC2)c(=O)[nH]1)C1CCCCC1 [Example 78] | 4890 |
| C[C@H](Nc1nc(=O)n(C2CCOCC2)c(=O)[nH]1)c1cccc([C@@H](C)O)c1 [Example 286] | 240 |
| Cc1cnn(-c2cccc([C@H](C)Nc3nc(=O)n(C4CCOCC4)c(=O)[nH]3)c2)c1 [Example 204] | 5430 |
| CC(C)n1c(=O)nc(N[C@@H](C)c2cccc([C@@H](C)O)c2)[nH]c1=O [Example 271] | 870 |
